In patent publication US11806326B2, “Methods for dopamine modulation in human neurologic diseases” (priority 2018, dated 2023):
Where two headings read alike, the source gives them in different places.

Tests used:
tyrosine hydroxylase [1] = biological target: T1, tyrosine hydroxylase (Bos taurus, UniProt P17289); settings: cited from earlier work
T1 construct: in bovine adrenal gland preparations; from tissue; host or cells: bovine (beef) adrenal gland
T1 sequence (P17289 1-491): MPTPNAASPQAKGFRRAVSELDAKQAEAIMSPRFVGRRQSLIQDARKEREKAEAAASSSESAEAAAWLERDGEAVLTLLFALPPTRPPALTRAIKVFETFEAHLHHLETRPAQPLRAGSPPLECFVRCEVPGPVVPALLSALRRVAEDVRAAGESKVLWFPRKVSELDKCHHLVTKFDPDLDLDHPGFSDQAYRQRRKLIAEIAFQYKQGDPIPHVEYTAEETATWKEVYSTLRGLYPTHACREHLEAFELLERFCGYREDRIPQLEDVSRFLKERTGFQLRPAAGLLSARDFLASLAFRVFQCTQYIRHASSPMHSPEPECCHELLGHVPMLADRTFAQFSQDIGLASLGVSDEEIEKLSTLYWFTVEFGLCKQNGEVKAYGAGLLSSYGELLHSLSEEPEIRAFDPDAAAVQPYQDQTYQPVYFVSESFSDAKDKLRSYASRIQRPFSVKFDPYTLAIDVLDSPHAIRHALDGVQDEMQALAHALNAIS

tyrosine hydroxylase [2] = settings: cited from earlier work
tyrosine hydroxylase [3] = biological target: tyrosine hydroxylase (Homo sapiens, UniProt P07101); settings: cited from earlier work
[4] = tested on: spontaneously hypertensive rats; settings: cited from earlier work
[5] = tested on: dopaminergic iPS cells originating from DJ-1 homozygous Parkinson's patients; assay: Chronic inhibition of dopamine synthesis in dopaminergic iPS cells from DJ-1 homozygous Parkinson's patients; format: cell-based, human; settings: chronic AMPT treatment, FIG. 5
[6] = delivered orally, cited from earlier work
[7] = Table 1A, amino acid analogs inhibiting tyrosine hydroxylase, read-out: Concentration for 50% Inhibition
[8] = Table 1A, concentration 10^−4 M
[9] = Table 1B, catecholamine analogs inhibiting tyrosine hydroxylase, read-out: Concentration for 50% Inhibition
[10] = Table 1B, concentration 10^−4 M

Chain of tyrosine hydroxylase (Homo sapiens, UniProt P07101) (P07101 whole entry): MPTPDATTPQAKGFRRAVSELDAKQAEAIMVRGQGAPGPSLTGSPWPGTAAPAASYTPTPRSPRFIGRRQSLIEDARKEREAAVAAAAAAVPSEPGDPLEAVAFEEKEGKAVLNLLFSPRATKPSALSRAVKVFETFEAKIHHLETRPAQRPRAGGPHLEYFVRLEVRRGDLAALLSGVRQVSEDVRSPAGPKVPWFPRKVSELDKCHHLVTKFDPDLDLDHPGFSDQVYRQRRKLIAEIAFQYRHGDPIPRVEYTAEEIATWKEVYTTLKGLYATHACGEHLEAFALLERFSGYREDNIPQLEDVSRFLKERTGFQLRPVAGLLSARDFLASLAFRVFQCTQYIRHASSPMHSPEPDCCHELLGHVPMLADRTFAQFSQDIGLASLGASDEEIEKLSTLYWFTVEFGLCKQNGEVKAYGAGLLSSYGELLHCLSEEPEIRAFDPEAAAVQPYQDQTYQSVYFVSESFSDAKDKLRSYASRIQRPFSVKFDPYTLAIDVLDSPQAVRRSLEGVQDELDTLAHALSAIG

For `CC(N)(Cc1ccc(O)c(Br)c1)C(=O)O` (racemic) [3-bromo-α-methyl-DL-tyrosine], the IC50 (tyrosine hydroxylase [1]; [7]) is listed as 1.5 µM.
In the case of `COc1ccc(CC(C)(N)C(=O)O)cc1Cl` (racemic) [3-chloro-4-methoxy-α-methyl-DL-phenylalanine], the IC50 (tyrosine hydroxylase [1]; [7]) is given as 500 µM.
For `CC(N)(Cc1ccc(O)c(Cl)c1)C(=O)O` (racemic) [3-chloro-α-methyl-DL-tyrosine], the IC50 (tyrosine hydroxylase [1]; [7]) is given as 5 µM.
For `CC(N)(Cc1ccc(O)c(F)c1)C(=O)O` (racemic) [3-fluoro-α-methyl-DL-tyrosine], the IC50 (tyrosine hydroxylase [1]; [7]) is given as 200 µM.
In the case of `CC(N)(Cc1ccc(O)c(I)c1)C(=O)O` (racemic) [3-iodo-α-methyl-DL-tyrosine], the IC50 (tyrosine hydroxylase [1]; [7]) is listed as 0.3 µM.
In the case of `NC[C@H](O)c1ccc(O)c(O)c1` (racemic) [DL-norepinephrine], the “% Inhibition” value (tyrosine hydroxylase [2]; Table 1B, concentration 2 × 10^−4 M) is listed as 53%.
In the case of `NC(Cc1ccc(F)cc1)C(=O)O` (racemic) [DL-p-fluoro-phenylalanine], the “% Inhibition” value (tyrosine hydroxylase [2]; [8]) is listed as 61%.
For `CC(N)(Cc1ccccc1)C(=O)O` (racemic) [α-methyl-DL-phenylalanine], the IC50 (tyrosine hydroxylase [1]; [7]) is listed as 80 µM.
For `CC(N)(Cc1cccc(O)c1)C(=O)O` (racemic) [α-methyl-m-DL-tyrosine], the IC50 (tyrosine hydroxylase [1]; [7]) is listed as greater than 1000 µM and the “% Inhibition” value (tyrosine hydroxylase [2]; Table 1A, concentration 2 × 10−4 M) is listed as 92%.
In the case of `NC(=O)Cc1ccc(O)c(O)c1` [3,4-dihydroxyphenyl-acetamide], the IC50 (tyrosine hydroxylase [1]; [9]) is listed as 1000 µM.
For `CCCC(C(N)=O)c1ccc(O)c(O)c1` (stereo not drawn) [3,4-dihydroxyphenyl-propyl-acetamide], the IC50 (tyrosine hydroxylase [1]; [9]) is listed as 20 µM and the “% Inhibition” value (tyrosine hydroxylase [2]; [10]) is listed as 84%.
In the case of `N[C@H](Cc1ccc(O)c(O)c1)C(=O)O` [3,4-hydroxy-D-phenylalanine], the IC50 (tyrosine hydroxylase [1]; [9]) is listed as greater than 4000 µM.
In the case of `N[C@@H](Cc1ccc(O)c(O)c1)C(=O)O` [3,4-hydroxy-L-phenylalanine], the IC50 (tyrosine hydroxylase [1]; [9]) is given as 2000 µM.
For `N[C@@H](Cc1cc(Br)c(O)c(Br)c1)C(=O)O` [3,5-dibromo -L-tyrosine], the IC50 (tyrosine hydroxylase [1]; [7]) is given as 500 µM.
In the case of `N[C@@H](Cc1ccc(O)c(Cl)c1)C(=O)O` [3-chloro-L-tyrosine], the IC50 (tyrosine hydroxylase [1]; [7]) is listed as 10 µM.
For `N[C@@H](Cc1ccc(O)c(I)c1)C(=O)O` [3-iodo-L-tyrosine], the IC50 (tyrosine hydroxylase [1]; [7]) is listed as 0.5 µM.
For `N[C@H](Cc1ccc(O)c(O)c1)C(=O)O` [D-dopa], the “% Inhibition” value (tyrosine hydroxylase [2]; [10]) is listed as 0%.
In the case of `CNC[C@H](O)c1ccc(O)c(O)c1` [D-epinephrine], the “% Inhibition” value (tyrosine hydroxylase [2]; [10]) is listed as 47%.
For `N[C@H](Cc1ccccc1)C(=O)O` [D-phenylalanine], the IC50 (tyrosine hydroxylase [1]; [7]) is given as greater than 1000 µM and the “% Inhibition” value (tyrosine hydroxylase [2]; [8]) is given as 7%.
In the case of `N[C@H](Cc1c[nH]c2ccccc12)C(=O)O` [D-tryptophan], the “% Inhibition” value (tyrosine hydroxylase [2]; [8]) is listed as 0%.
In the case of `N[C@@H](Cc1ccc(O)c(O)c1)C(=O)O` [L-dopa], the “% Inhibition” value (tyrosine hydroxylase [2]; [10]) is listed as 68%.
For `CNC[C@H](O)c1ccc(O)c(O)c1` [L-epinephrine], the “% Inhibition” value (tyrosine hydroxylase [2]; [10]) is listed as 35%.
In the case of `NC[C@@H](O)c1ccc(O)c(O)c1` [L-norepinephrine], the IC50 (tyrosine hydroxylase [1]; [9]) is listed as 1000 µM.
In the case of `N[C@@H](Cc1ccccc1)C(=O)O` [L-phenylalanine], the IC50 (tyrosine hydroxylase [1]; [7]) is listed as 200 µM and the “% Inhibition” value (tyrosine hydroxylase [2]; [8]) is listed as 78%.
In the case of `N[C@@H](Cc1c[nH]c2ccccc12)C(=O)O` [L-tryptophan], the IC50 (tyrosine hydroxylase [1]; [7]) is given as greater than 1000 µM and the “% Inhibition” value (tyrosine hydroxylase [2]; [8]) is given as 50%.
In the case of `CCC[C@H]1CCC(=C2C(=O)CCC2=O)O1` [Oudenone, oudenone], the “tyrosine hydroxylase inhibition (in words)” value (tyrosine hydroxylase [3]; directly measured) is listed as “inhibit tyrosine hydroxylase” and the “effect on blood pressure” value [4] is listed as “reduce blood pressure”.
For `C[C@H]1O[C@@H](c2ccc3c(c2O)C(=O)C2=C(C3=O)[C@@]3(O)C(=O)C[C@](C)(O)C[C@@]3(O)C=C2)C[C@@H](O)[C@@H]1O` [aquayamycin], the “potency as tyrosine hydroxylase inhibitor (in words)” value (tyrosine hydroxylase [3]; compared with 3-iodo-α-methyl-DL-tyrosine) is given as “near that reported for 3-iodo-α-methyl-DL-tyrosine”.
In the case of `NCCc1ccc(O)c(O)c1` [dopamine], the “% Inhibition” value (tyrosine hydroxylase [2]; [10]) is given as 56%.
For `C[C@@](N)(Cc1ccc(O)c(O)c1)C(=O)O` [α-methyl-3,4-dhydroxy-D-phenylalanine], the IC50 (tyrosine hydroxylase [1]; [9]) is given as greater than 8000 µM.
For `C[C@](N)(Cc1ccc(O)c(O)c1)C(=O)O` [α-methyl-3,4-dhydroxy-L-phenylalanine], the IC50 (tyrosine hydroxylase [1]; [9]) is given as 1500 µM.
In the case of `C[C@@](N)(Cc1ccc(O)cc1)C(=O)O` [α-methyl-D-tyrosine], the IC50 (tyrosine hydroxylase [1]; [7]) is given as greater than 1000 µM.
With `C[C@](N)(Cc1ccc(O)cc1)C(=O)O` [α-methyl-L-tyrosine] the “deposition of α-synuclein” value [5] was “blunted deposition of α-synuclein”, the “levels of oxidized dopamine” value [5] was “lower levels of oxidized dopamine” and the oxidative stress [5] was “reduced oxidative stress”. The IC50 (tyrosine hydroxylase [1]; bovine adrenal gland preparations, read-out: concentration inhibiting tyrosine hydroxylase by 50%) was 25 µM, the “% Inhibition” value (tyrosine hydroxylase [2]; [8]) was 86% and the “inhibition of tyrosine hydroxylase” value (tyrosine hydroxylase [2]; concentration of 10^−4M, guinea pig brain particle preparations) was 86%. For the same compound, the “metabolites recovered in the urine” value ([6]; alpha-methyl-dopa, alpha-methyl-dopamine, alpha-methyl-norepinephrine) was “relatively little” and the oral absorption [6] was roughly 69%.
